Reference: patent US9315475B2 (MERCK SHARP & DOHME CORP., priority 2011, dated 2016)

Tested on: HIV-1 (H9IIIB strain)
Experiment: Antiviral acute infection assay in cell culture (Spread)
Format: cell-based
Conditions: Human immunodeficiency virus 1, T-lymphoid, HIV-1 H9IIIB infection of MT-4 human T-lymphoid cells in 10% FBS; mean of at least two independent experiments
Excerpt: Antiviral Assays in Cell Culture (“Spread”)
Acute Infection Assay (“Spread”) data were generated using HIV-1 (H9IIIB strain) infection of MT-4 human T-lymphoid cells in 10% FBS, and according to the methods disclosed by J. P. Vacca et al, “L-735,524: An orally bioavailable human immunodeficiency virus type 1 protease inhibitor,” Proc. Natl. Acad. Sci. USA, Vol. 91, pp. 4096-4100 (April 1994).

Structure (SMILES) | EC50 [nM]
CC1(C(=O)N[C@H](C(=O)Nc2cccc(F)c2CC[C@@H]2CN[C@H](COC(=O)NCC(F)(F)F)CO2)C(c2ccc(F)cc2)c2ccc(F)cc2)CC1 [Example 142, 4-Fluoro-β-(4-fluorophenyl)-N-(3-fluoro-2-{2-[(2R,5S)-5-({[(2,2,2-trifluoroethyl)carbamoyl]oxy}methyl)morpholin-2-yl]ethyl}phenyl)-Nα-[(1-methylcyclopropyl)carbonyl]-L-phenylalaninamide] | 150
CCc1nc(CNC(=O)OC[C@@H]2CO[C@H](CCc3c(F)cncc3NC(=O)CC(c3ccc(F)cc3)c3ccc(F)cc3)CN2)no1 [Example 174, {(3S,6R)-6-[2-(3-{[3,3-bis(4-fluoro-phenyl)propanoyl]amino}-5-fluoropyridin-4-yl)ethyl]morpholin-3-yl}methyl [(5-ethyl-1,2,4-oxadiazol-3-yl)methyl]carbamate] | 120
N[C@H](C(=O)Nc1cncc(F)c1CC[C@@H]1CN[C@H](COC(=O)NCC(F)(F)F)CO1)[C@@H](c1ccc(F)cc1)C1CCOCC1 [Example 127, (βR)-4-Fluoro-N-(5-fluoro-4-{2-[(2R,5S)-5-({[(2,2,2-trifluoroethyl)carbamoyl]oxy}methyl)morpholin-2-yl]ethyl}pyridin-3-yl)-β-(tetrahydro-2H-pyran-4-yl)-L-phenylalaninamide] | 71
O=C(CC(c1ccc(F)cc1)c1ccc(F)cc1)Nc1cncc(F)c1CC[C@@H]1CN[C@H](COC(=O)NCc2ccc(F)cc2)CO1 [Example 176, {(3S,6R)-6-[2-(3-{[3,3-bis(4-fluoro-phenyl)propanoyl]amino}-5-fluoropyridin-4-yl)ethyl]morpholin-3-yl}methyl (4-fluorobenzyl)carbamate] | 73
N[C@H](C(=O)Nc1cccc(F)c1CC[C@@H]1CN[C@H](COC(=O)NCC(F)(F)F)CO1)[C@@H](c1ccc(Cl)cc1)c1ccncc1F [Example 136, (βS)-4-Chloro-β-(3-fluoropyridin-4-yl)-N-(3-fluoro-2-{2-[(2R,5S)-5-({[(2,2,2-trifluoroethyl)carbamoyl]oxy}methyl)morpholin-2-yl]ethyl}phenyl)-L-phenylalaninamide] | 60
COC(=O)N[C@H](C(=O)Nc1cccc(F)c1CC[C@@H]1CN[C@H](COC(=O)NCC(F)(F)F)CO1)C(c1ccc(Cl)cc1)c1ccc(Cl)cc1 [Example 108, 4-Chloro-β-(4-chlorophenyl)-N-(3-fluoro-2-{2-[(2R,5S)-5-({[(2,2,2-trifluoroethyl)carbamoyl]oxy}methyl)morpholin-2-yl]ethyl}phenyl)-Nα-(methoxycarbonyl)-L-phenylalaninamide] | 860

Compounds with a lower EC50, results first:

EC50 [nM] | Structure (SMILES)
53 | N[C@H](C(=O)Nc1cccc(F)c1CC[C@@H]1CN[C@H](COC(=O)NCCOc2ccccc2)CO1)C(c1ccc(F)cc1)c1ccc(F)cc1 [Example 222, 4-fluoro-N-(3-fluoro-2-{2-[(2R,5S)-5-({[(2-phenoxyethyl)carbamoyl]oxy}methyl)morpholin-2-yl]ethyl}phenyl)-β-(4-fluorophenyl)-L-phenylalaninamide]
50 | COCCOc1ccc([C@@H](CC(=O)Nc2cncc(F)c2CC[C@@H]2CN[C@H](COC(=O)NCC(F)(F)F)CO2)c2ccc(F)cc2)cc1 [Example 181, [(3S,6R)-6-{2-[3-fluoro-5-({(3R)-3-(4-fluorophenyl)-3-[4-(2-methoxy-ethoxy)phenyl]propanoyl}amino)pyridin-4-yl]ethyl}morpholin-3-yl]methyl (2,2,2-trifluoroethyl)carbamate]
30 | N#Cc1ccc([C@@H](CC(=O)Nc2cncc(F)c2CC[C@@H]2CN[C@H](COC(=O)NCC(F)(F)F)CO2)c2ccc(F)c(F)c2)cc1 [Example 115, {(3S,6R)-6-[2-(3-{[(3R)-3-(4-Cyanophenyl)-3-(3,4-difluorophenyl)propanoyl]amino}-5-fluoropyridin-4-yl)ethyl]morpholin-3-yl}methyl (2,2,2-trifluoroethyl)carbamate]
